The values that follow come from patent US20250025439A1, “DERIVATIVES OF NIFUROXAZIDE FOR USE IN THE TREATMENT OF MITOCHONDRIAL DISORDERS AND NEURODEGENERATIVE DISEASES” (priority 2021, published 2025).

One assay concerns Mic60 and Miro1. As to the kind of experiment: Proximity ligation assay Mic60/Miro1. It is filed as cell-based, human. The settings on record: patient fibroblasts, NFX 5 μM. The protocol: Fibroblasts were seeded in 16-well Lab-Tek chambers slides (Nunc). For mitochondrial staining, cells were incubated in a 100 nM solution of MitoTracker Red CMXRos (Invitrogen) for 15 min. Cells were fixed with PFA 4% for 20 min at 37° C. and permeabilised with 2% Triton X-100 for 10 min. Then coverslips were saturated with 5% BSA for 45 min at RT. All antibodies were diluted with PBS-BSA 5%. Fibroblasts were incubated in the presence of convenient couple of primary antibodies for 1 h at RT. After PBS washes, incubation with appropriate PLA probe (PLA probe anti rabbit MINUS, PLA probe anti mouse PLUS), hybridization, ligation and amplification were done using the DuoLink In Situ Detection Reagents Green (Olink Biosciences) following manufacturer's instructions. Finally, the samples were mounted on glass slides using Prolong Gold Antifade Reagent (Molecular Probes). Images were captured with a ZEISS LSM 880 confocal laser-scanning microscope and analyzed using Huygens Essential Software™ (Scientific Volume Imaging). Data are represented as mean±SEM. Negative control experiments (with one antibody omitted) were performed in parallel and checked to result in the absence of PLA signal (FIG. 1). […]

The subject of assay [1] is CHCHD10^S59L/+ fibroblasts. As to the kind of experiment: Mitochondrial network analysis after KIF5B siRNA transfection. It is filed as cell-based, human. The settings on record: patient cells, NFX 5 μM, 72 h. The protocol:
(§1) Cells were incubated with MitoTracker red (Invitrogen) as previously described (Genin et al., EMBO Mol. Med., 2016, 8, 58-72). Fibroblasts were plated on a glass slide in a 60 mm dish. For the mitochondrial staining, the fibroblasts were incubated with MitoTracker Red (Invitrogen) (100 nM) during 15 minutes at 37° C. Then the medium was replaced by fresh medium for two hours at 37° C. The cells were fixed using Paraformaldehyde (Electron Microscopy Science) (4%) diluted in medium, 20 minutes at 37° C. The cells were then washed with PBS and mounted with Prolong Gold Antifade Reagent (Molecular Probes). The slides were analysed using a confocal microscope (Zeiss LSM 880). […] The images were deconvoluted with Huygens Essential Software™ (Scientific Volume Imaging) using a theoretically calculated point spread function (PSF) for each of the dyes. All selected images were iteratively deconvolved with maximum iterations scored 40 and a quality threshold at 0.05. The deconvolved images were used for quantitative mitochondrial network analysis with Huygens Essentiel Software™ with the following standardised set of parameters: threshold=15% and seed=10% for each cell types and garbage=10. The quantitative data were further analysed in Microsoft Excel and GraphPad Prism 8 (GraphPad Software). Mitochondrial network length was quantified for 30 randomly-selected individual cells. […]

The target of the next assay is STAT3 (Homo sapiens, UniProt P40763). The following applies: cited from earlier work.
Chain of STAT3 (P40763 whole entry, species assumed): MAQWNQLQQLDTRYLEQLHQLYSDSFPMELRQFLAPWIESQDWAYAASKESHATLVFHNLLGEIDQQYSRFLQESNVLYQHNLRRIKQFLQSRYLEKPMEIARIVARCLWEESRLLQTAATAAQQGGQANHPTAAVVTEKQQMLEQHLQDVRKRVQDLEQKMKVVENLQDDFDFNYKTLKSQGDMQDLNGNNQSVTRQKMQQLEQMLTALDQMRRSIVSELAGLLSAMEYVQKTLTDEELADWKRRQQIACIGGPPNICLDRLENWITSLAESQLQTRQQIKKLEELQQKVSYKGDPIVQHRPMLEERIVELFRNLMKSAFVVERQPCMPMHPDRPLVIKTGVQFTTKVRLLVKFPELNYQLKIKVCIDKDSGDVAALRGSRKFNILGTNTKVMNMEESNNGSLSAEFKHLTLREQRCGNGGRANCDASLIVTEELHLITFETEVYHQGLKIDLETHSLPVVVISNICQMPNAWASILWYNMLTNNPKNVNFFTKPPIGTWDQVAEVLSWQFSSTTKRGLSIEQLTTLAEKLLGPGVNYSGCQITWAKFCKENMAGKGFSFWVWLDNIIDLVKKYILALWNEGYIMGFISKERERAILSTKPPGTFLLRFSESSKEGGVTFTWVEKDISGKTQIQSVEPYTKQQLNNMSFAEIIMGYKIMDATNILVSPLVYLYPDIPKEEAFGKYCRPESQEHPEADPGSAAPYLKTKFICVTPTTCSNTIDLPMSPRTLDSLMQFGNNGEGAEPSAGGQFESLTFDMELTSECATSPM
The subject of assay [2] is CHCHD10^S59L/+ fibroblasts. Nature of the assay: Mitochondrial network analysis after STAT3 siRNA transfection. In kind it is cell-based, human. The following applies: STAT3 siRNA transfected fibroblasts. How it is done: as §1
The subject of the next assay is patient fibroblasts. Nature of the assay: Electron microscopy of mitochondrial morphology in fibroblasts. The settings on record: 72 h after treatment. It is filed as cell-based, human. The protocol:
Cells were seeded on 24 wells/plate, fixed with 1.6% glutaraldehyde in 0.1 M cacodylate buffer (pH 7.4) for 2 hours, rinsed and postfixed in 1% osmium tetroxide and 1% potassium ferrocyanide in 0.1 M cacodylate buffer before to processed for ultrastructure as previously described (Bannwarth et al., Brain, 2014, 137, 2329-2345). The protocol for contrasting sections was slightly modified, using a 5% Lanthanide salt solution (a mixture of Gadolinium acetate and Samarium acetate) for 7 minutes instead of uranium acetate. The cells were examined under a JEOL 1400 transmission electron microscope. The ultrastructure of mitochondria was classified in three categories. Normal: the mitochondria have numerous, parallel and well organized cristae. Intermediary: the mitochondria have less cristae, they show few round or swollen cristae or have a mild disorganisation. Abnormal: the mitochondria have swollen, disorganized or no cristae. More than 100 mitochondria were classified per condition. Nifuroxazide (46494-100MG Sigma) was resuspended in DMSO at 50 mM and stocked at −20° C. For each treatment, the Nifuroxazide was diluted in complete medium (Dulbecco's Modified Eagle Medium supplemented with 10% FBS, penicillin (100 U/mL) and streptomycin (0.1 mg/mL)) at the desired concentration. […] 72 h hours after treatment, the cells were analysed.

Molecules are shown by their SMILES.

With `O=C(N/N=C/c1ccc([N+](=O)[O-])o1)c1ccc(O)cc1` [NFX, (E)-4-hydroxy-N′-((5-nitrofuran-2-yl)methylene)benzohydrazide], the “number of PLA spots Mic60/Miro1” value with Mic60 and Miro1 is “significant increase”. Moreover, in assay [1], the “effect on the mitochondrial network after inactivation of KIF5B” value is “no longer has an effect”. Besides, at STAT3, the “inhibition of STAT3 tyrosine phosphorylation” value is “potent inhibitor”. In addition, the “effect on mitochondrial network length after STAT3 depletion” value in assay [2] is on record as “without preventing the positive effect”. The “mitochondrial morphology and cristae shape (EM)” value in the assay with patient fibroblasts was “improved”.
